{
  "source": "patent US9220706B2",
  "about": "“Inhibition of leukemic stem cells by PP2A activating agents” (Ohio State Innovation Foundation, priority 2012, dated 2015)",
  "key": {"[1]": {"test_system": "LSK SCLtTA/BCR-ABL1 cells", "assay": "CFC/replating assay, leukemic LSK cells", "type": "cell-based, mouse", "experimental": "(§1) Long term culture-initiating cell (LTC-IC) and Colony-forming cell (CFC)/replating assays. 2×10^6 mononuclear CML cells were cultured with a 1:1 mixture of irradiated (80 Gy) IL-3/G-CSF-producing M2-10B4 and IL-3/KL-producing SI/SI murine fibroblasts in MyeloCult H5100 (StemCell Technologies) supplemented with hydrocortisone. Drugs were present during the first week of culture. Medium was replaced after 7 days, followed by weekly half-medium changes. After 6 weeks, adherent and floating cells were harvested and 5×10^4 cells plated into MethoCult H4435. LTC-IC-derived colonies were scored after 14 days. For CFC/replating, individual 14-day colonies from 10^3-10^5 CD34+/CD38− CML or 0.2×10^3-10^3 leukemic LSK cells plated in 0.9% H4435 or M3234 MethoCult, respectively, containing KL, G-CSF, GM-CSF, IL-3, IL-6, and Epo were replated and scored 2 weeks later."}, "CML cells": {"test_system": "CML cells", "assay": "Long term culture-initiating cell (LTC-IC) assay", "type": "cell-based, human", "settings": "drug during first week of 6-week culture, vs untreated", "experimental": "as §1"}, "[2]": {"test_system": "CFSE^max/CD34^+ CML cells", "assay": "CFSE-mediated tracking of quiescent cells, CML", "type": "cell-based, human", "settings": "CFSE-labeled CD34^+ CML cells; FTY720 at 2.5 μM", "experimental": "(§2) CFSE-mediated tracking of cell division. Carboxyfluorescein diacetate succinimidyl diester (CFSE)-stained cells (CellTrace CFSE Proliferation Kit: Invitrogen) were cultured in the presence of the indicated drugs (dosed at time zero and at day three), and the cells were harvested after 3 or 6 days in culture, and stained with anti-CD34 PE, Annexin-V V450, and the viability stain 7-AAD (BD Bioscience) to determine the number of viable quiescent cells (CFSEmax/CD34^+/7-AAD− cells) and the percentage of quiescent and apoptosis-committed cells (CFSEmax/CD34+/Annexin V+/7-AAD±). Cells were sorted into dividing and quiescent populations for Western blot analysis. For assessment of mouse quiescent leukemic HSCs, Lin- cells from 8 week-induced SCLtTA/BCR-ABL1 mice were CFSE-stained and used as described above. Quiescent cells (CFSE^max/CD34^+) were reported as a fraction of the initial number of CD34^+ cells."}, "[3]": {"test_system": "CML cells (CFSE^max/CD34^+, CD34^+/CD38^−, CD34^+)", "assay": "Annexin-V/7-AAD apoptosis staining", "type": "cell-based, human", "experimental": "as §2"}, "BCR-ABL1": {"test_system": "BCR-ABL1", "assay": "Intracellular flow staining of active BCR-ABL1 (pABL)", "type": "cell-based, human", "experimental": "Flow cytontetric analysis and sorting of HSCs. Primary CD34^+ cells were isolated by magnetic cell sorting (CD34 MultiSort; Miltenyi Biotec) and kept in IMDM supplemented with 30% FBS, 2 mM Lglutamine, rhIL-3 (20 ng/ml), rhIL-6 (20 ng/ml), rhFlt-3 ligand (100 ng/ml), and rhKL (100 ng/ml) (Stem Cell Technologies). The CD34+ fraction derived from the BM of healthy donors and the PB or BM from CML patients was stained with anti-CD34 FITC or PE, and anti-CD38 PE-Cy7 (BD Biosciences). The Lin− fraction of murine mononuclear cells was stained with anti-Sca-1 PeCy7 (BD Biosciences) and anti-c-kit APC-AlexaFluor750 (eBioscience), The CD34^+/CD38^− or the Lin−/Sca-1+/c-Kit+ (LSK) fractions were sorted by fluorescence-activated cell sorting with a FACS Aria II instrument (BD Biosciences). […]"}, "[4]": {"test_system": "GFP+ leukemic LSK and LT-HSC from SCLtTA/BCR-ABL1/GFP mice", "assay": "BM serial transplantation, transgenic BCR-ABL1 mice", "type": "in vivo, mouse", "experimental": "BM Serial Transplantation Assays and In Vivo Effect of FTY720 on LT-HSCs from Transgenic BCR-ABL1 Mice. 2×10^6 GFP+ BM or 3×10^3 GFP+ BM-derived LSK (Lin^−/Sca-1^+/Kit^+) cells from 4-week induced leukemic SCLtTA/BCR-ABL1/GFP mice were transplanted into lethally-irradiated FVB/N mice. After the onset of neutrophilia (4 weeks post-transplant), mice were FTY720- (10 mg/kg/day, i.p.) or vehicle-treated for 4 weeks. The number of total GFP+ cells and GFP+ long-term (LT)-HSCs (Lin^−/Sca-1^+/Kit^+/FLt3^−/CD150^+/CD48^−) was measured with a LSRII flow cytometer. BM cells (2×10^6, 1×10^6 and 0.5×10^6) from treated and untreated animals (8 mice/group) mixed with 2×10^5 FVB/N BM cells were transplanted into lethally-irradiated secondary recipients. Engraftment (GFP^+ in PB>0.1%) was monitored every 4 weeks, and LT-HSC frequency was determined 16 weeks after secondary transplant using Poisson statistics. All animal studies were IACUC approved."}, "[5]": {"settings": "FTY720 10 mg/kg/day i.p., 4-week treatment"}},
  "data": [
    {"compound": "CCCCCCCCc1ccc(CCC(N)(CO)CO)cc1", "note": "[FTY720]", "values": [
      {"measurement": "reduction in replating efficiency", "setting": "[1]", "value": "70-90%"},
      {"measurement": "inhibition of LTC-ICs", "setting": "CML cells", "value": "60-70%"},
      {"measurement": "decrease in CFSE^max (quiescent) CML HSCs", "setting": "[2]", "value": "60-75%"},
      {"measurement": "apoptosis of CD34^+ CML progenitors in combination with imatinib", "setting": "[3]; CD34^+ CML progenitors n=10", "value": "synergizes with imatinib"},
      {"measurement": "apoptosis of quiescent/HSC-enriched CML cells", "setting": "[3]; CFSE^max/CD34^+ or CD34^+/CD38^− CML cells", "value": "triggered apoptosis"},
      {"measurement": "inhibition of BCR-ABL1 activity (pABL levels)", "setting": "BCR-ABL1; bulk CD34 CML cells", "value": "occurred in the bulk"},
      {"measurement": "inhibition of BCR-ABL1 activity (pABL levels)", "setting": "BCR-ABL1; quiescent fraction (CFSE^max) of CD34 CML cells", "value": "not in the quiescent fraction"},
      {"measurement": "secondary recipients with leukemic engraftment", "setting": "[4]; BM from treated mice, Table I Exp 1", "value": 25, "unit": "%"},
      {"measurement": "Engraftment-positive at 16 weeks (>0.1% GFP+)", "setting": "[4]; Experiment #1, cell dose in 2nd recipients 2,000,000", "value": "2/8"},
      {"measurement": "LT-HSC frequency", "setting": "[4]; Experiment #2, Poisson statistics, 16 weeks after secondary transplant", "value": "0.45 × 10^−6"},
      {"measurement": "Engraftment-positive at 16 weeks (>0.1% GFP+)", "setting": "[4]; Experiment #2, cell dose in 2nd recipients 500,000", "value": "0/8"},
      {"measurement": "Engraftment-positive at 16 weeks (>0.1% GFP+)", "setting": "[4]; Experiment #2, cell dose in 2nd recipients 1,000,000", "value": "3/7"},
      {"measurement": "Engraftment-positive at 16 weeks (>0.1% GFP+)", "setting": "[4]; Experiment #2, cell dose in 2nd recipients 2,000,000", "value": "5/7"},
      {"measurement": "reduction of GFP^+ (leukemic) LSK", "setting": "[4]; [5]", "value": "≥ 50", "unit": "%"},
      {"measurement": "reduction of splenic and/or BM GFP^+ LT-HSC", "setting": "[4]; [5]", "value": "≥ 70", "unit": "%"},
      {"measurement": "reduction of frequency of leukemic LT-HSCs", "setting": "[4]; limiting dilution analysis, Table I Exp. 2", "value": "~80", "unit": "%"}
    ]}
  ]
}
